Results on 14 compounds are retold here after ChEMBL document CHEMBL6103606, “AMP-Activated Protein Kinase Activators as Therapeutic Targets To Treat Heart Failure and Diseases That Can Benefit from Improved Muscular Performance” (ACS Med Chem Lett, 2025).

Test [1] has as its target AMPK alpha2/beta2/gamma3 (Homo sapiens) (UniProt P54646+O43741+Q9UGI9). Nature of the test: Activation of human AMPK alpha2/beta2/gamma3 transiently transfected in HEK293 cells assessed as phosphorylation at […]Thr172 by measuring asymptotic max incubated for 20 mins by AlphaLISA assay relative to control. It counts as cell-based. Background: Alpha assays give light when donor and acceptor beads are brought close together.

In a further test the target is AMPK alpha2/beta2/gamma3 (Homo sapiens, UniProt O43741+P54646+Q9UGI9). Nature of the test: Activation of human AMPK (alpha2/beta2/gamma3) transiently transfected in HEK293 cells assessed as phosphorylation at […]Thr172 incubated for 20 mins by AlphaLISA assay. The format is cell-based.
AMPK alpha2/beta2/gamma3, sequence (P54646 whole entry): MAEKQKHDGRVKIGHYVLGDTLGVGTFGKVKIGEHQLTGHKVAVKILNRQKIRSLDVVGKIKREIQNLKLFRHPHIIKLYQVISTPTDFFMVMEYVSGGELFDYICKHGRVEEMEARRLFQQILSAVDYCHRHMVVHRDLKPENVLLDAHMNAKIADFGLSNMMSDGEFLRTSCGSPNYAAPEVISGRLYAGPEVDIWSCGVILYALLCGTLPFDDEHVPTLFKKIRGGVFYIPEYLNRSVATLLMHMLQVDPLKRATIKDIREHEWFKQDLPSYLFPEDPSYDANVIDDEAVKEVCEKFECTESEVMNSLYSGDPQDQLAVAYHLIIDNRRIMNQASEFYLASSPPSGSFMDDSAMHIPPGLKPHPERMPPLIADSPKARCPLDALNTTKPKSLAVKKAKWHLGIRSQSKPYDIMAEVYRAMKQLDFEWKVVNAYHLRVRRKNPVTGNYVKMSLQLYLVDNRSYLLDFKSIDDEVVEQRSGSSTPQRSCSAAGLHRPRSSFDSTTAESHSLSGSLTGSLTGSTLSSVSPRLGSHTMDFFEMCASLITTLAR
AMPK alpha2/beta2/gamma3, sequence (O43741 whole entry): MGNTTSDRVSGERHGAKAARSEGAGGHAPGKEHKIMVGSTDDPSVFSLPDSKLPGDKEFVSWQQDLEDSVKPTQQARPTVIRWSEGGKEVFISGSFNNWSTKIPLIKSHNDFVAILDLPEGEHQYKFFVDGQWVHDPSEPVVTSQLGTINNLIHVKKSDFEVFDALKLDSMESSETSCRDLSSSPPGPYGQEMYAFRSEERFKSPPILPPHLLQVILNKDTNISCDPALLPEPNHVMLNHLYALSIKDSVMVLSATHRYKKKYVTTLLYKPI
AMPK alpha2/beta2/gamma3, sequence (Q9UGI9 whole entry): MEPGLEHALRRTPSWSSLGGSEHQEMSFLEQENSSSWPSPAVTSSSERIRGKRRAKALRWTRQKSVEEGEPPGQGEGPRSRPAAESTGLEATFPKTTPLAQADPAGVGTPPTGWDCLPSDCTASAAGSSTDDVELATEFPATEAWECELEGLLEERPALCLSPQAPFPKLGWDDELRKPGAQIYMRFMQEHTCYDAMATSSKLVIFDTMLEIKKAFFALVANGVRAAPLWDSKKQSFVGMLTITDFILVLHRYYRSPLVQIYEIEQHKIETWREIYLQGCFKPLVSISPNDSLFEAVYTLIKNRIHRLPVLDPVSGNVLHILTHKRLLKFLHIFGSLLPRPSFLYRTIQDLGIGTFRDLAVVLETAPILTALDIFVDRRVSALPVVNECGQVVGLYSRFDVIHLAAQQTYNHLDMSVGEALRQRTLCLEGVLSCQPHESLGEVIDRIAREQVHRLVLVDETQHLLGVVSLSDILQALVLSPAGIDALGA

AMPK alpha2/beta2/gamma3 (Homo sapiens), sequence (O43741 whole entry, looked up): as the sequence (O43741 whole entry) above
AMPK alpha2/beta2/gamma3 (Homo sapiens), sequence (P54646 whole entry, looked up): as the sequence (P54646 whole entry) above
AMPK alpha2/beta2/gamma3 (Homo sapiens), sequence (Q9UGI9 whole entry, looked up): as the sequence (Q9UGI9 whole entry) above

Consider `Cn1cc(F)c(N2C[C@](C)(c3cccc(Cl)c3F)c3c(cnc(NC4CN(C(=O)[C@@H]5C[C@@H]5F)C4)c3F)C2=O)n1`, for which the max activation in test [1] (filed as activator) amounted to 81.7%.
The same measure, in the same setting: to `Cn1cc(F)c(N2C[C@](C)(c3cccc(Cl)c3F)c3c(cnc(NC4CN(C(=O)CC(F)(F)F)C4)c3F)C2=O)n1` belongs 90%.
In the case of `C[C@]1(c2cccc(Cl)c2F)CN(c2ncccc2F)C(=O)c2cnc(NC3CN(C(=O)C4(O)CC4)C3)c(F)c21`, in test [1] (filed as activator), the max activation is 112%.
Same read-out and setting: to `CC1(c2cccc(Cl)c2F)CN(c2ncccc2F)C(=O)c2cnc(NC3CN(C(=O)N4CCC[C@@H]4CO)C3)nc21` (some centres not stated) belongs 106%.
As to `Cn1cc(F)c(N2CC(C)(c3cccc(Cl)c3F)c3c(cnc(NC4CN([C@H]5CCCNC5=O)C4)c3F)C2=O)n1` (some centres not stated), the EC50 (usually the concentration at which the effect is half-maximal) at AMPK alpha2/beta2/gamma3 came to 27.2 nM. Also, in test [1] (filed as activator), the max activation was 119%.
For the compound `C[C@]1(c2cccc(Cl)c2F)CN(c2ccc([C@@H]3COCCN3)cn2)C(=O)c2cnc(NC3CN(C(=O)c4cccnn4)C3)c(F)c21`, in test [1] (filed as activator), the max activation turned out to be 120%.
Consider `Cn1cc(F)c(N2C[C@](C)(c3cccc(Cl)c3F)c3c(cnc(NC4CN(C(=O)C(O)CC(F)(F)F)C4)c3F)C2=O)n1` (some centres not stated), for which the max activation in test [1] (filed as activator) turned out to be 100%.
Same read-out and setting: to `Cn1cc(F)c(N2C[C@](C)(c3cccc(Cl)c3F)c3c(cnc(NC4CN(C(=O)C5CCC(F)(F)CN5)C4)c3F)C2=O)n1` (some centres not stated) belongs 85.5%.
In the case of `CNCc1ccc(N2C[C@](C)(c3cccc(Cl)c3F)c3nc(NC4CN(C(=O)[C@@H]5C[C@@H]5F)C4)ncc3C2=O)cc1F`, on AMPK alpha2/beta2/gamma3, the EC50 is 2500 nM. Also, the max activation in test [1] (filed as activator) is 154%.
The corresponding values for `Cn1cc(F)c(N2C[C@](C)(c3cccc(Cl)c3F)c3c(cnc(NC4CN(C(=O)[C@@](C)(O)C5CC5)C4)c3F)C2=O)n1` are 21.3 nM and 89.6%.
On to `Cn1cc(F)c(N2CC(C)(c3cccc(Cl)c3F)c3c(cnc(N[C@@H]4CCN(C(=O)N5C[C@@H]6C[C@H]5CO6)C4)c3F)C2=O)n1` (some centres not stated), for which, in test [1] (filed as activator), the max activation is 52.2%.
Regarding `CN1CCCC(N2CC(Nc3ncc4c(c3F)[C@@](C)(c3cccc(Cl)c3F)CN(c3nn(C)cc3F)C4=O)C2)C1=O` (some centres not stated), the max activation in test [1] (filed as activator) was found to be 139%.
On to `C[C@]1(c2cccc(Cl)c2F)CN(c2cc(OC(F)F)ccn2)C(=O)c2cnc(NC3CN(C(=O)[C@@H]4C[C@@H]4F)C3)c(F)c21`, for which, in test [1], the max activation came out at 30.9%.
Regarding `CC1(c2ccc(F)c(Cl)c2F)CN(c2ccc(CO)cn2)C(=O)c2cnc(NC3CN(C(=O)N4C[C@@H]5C[C@H]4CO5)C3)c(F)c21` (some centres not stated), the max activation in test [1] (filed as activator) came out at 113%.
